PMC12040169 (PLOS Biology, 2025)

Test: in vitro
Details: human, hela cells, % viability
Compound `C[C@@H](c1ccccc1)n1c(=O)[nH]c2ncc(-c3cccc(C(=O)NCCN(C)C)c3)nc21` [CBK064376] has a viability at 28.5 h, 10 µM of 103%.
Work on `Cc1ccccc1N1C(=O)c2ccc(C(=O)OCC(=O)c3ccc(Cl)c([N+](=O)[O-])c3)cc2C1=O` [CBK264108] yielded a viability at 28.5 h, 10 µM of 91.3%.
Compound `CN(C)c1ncc(Br)cc1C(=O)NCCNS(=O)(=O)c1ccccc1` [CBK076504] has a viability at 28.5 h, 10 µM of 89.4%.
Compound `Cn1c2c(c(=O)n(C)c1=O)[C@H]1[C@H](O)[C@H](O)C[C@H]1C1(CCC1)N2` [CBK303250] has a viability at 28.5 h, 10 µM of 93.6%.
For `CC(C)(C)C(=O)NC(=S)Nc1ccc(Cc2ccncc2)cc1` [CBK269717], the viability at 28.5 h, 10 µM was 91.5%.
For `CCCCc1ccc(C(=O)CSc2nc(N)c(C#N)c(-c3ccc(O)cc3)c2C#N)cc1` [CBK261268], the viability at 28.5 h, 10 µM was 93.4%.
Work on `CC(=O)c1cccc(NC(=O)/C(=C\c2cccnc2)NC(=O)c2ccc(C)cc2)c1` [CBK262456] yielded a viability at 28.5 h, 10 µM of 88.6%.
In the case of `COc1ccccc1N1CCN(C(=O)NCC2CCCCC2)CC1` [CBK155588], the viability at 28.5 h, 10 µM is reported as 98.3%.
`O=C(NC1CC1)c1ccsc1NC(=O)C1C2C=CC(C2)C1C(=O)O` (centres unmarked) [CBK270322] gave a viability at 28.5 h, 10 µM of 98.7%.
Compound `Cc1nn(C)cc1-c1cncn1CCOc1ccc(Cl)cc1` [CBK281508] has a viability at 28.5 h, 10 µM of 87.5%.
`CCC(c1ccc(F)cc1)N(C)C(=O)Cn1cccc(C(=O)Nc2ccc(F)cc2)c1=O` (centres unmarked) [CBK286061] gave a viability at 28.5 h, 10 µM of 88.7%.
`CCN1CCCC1CN(Cc1ccccn1)Cc1ccco1` (centres unmarked) [CBK283161] gave a viability at 28.5 h, 10 µM of 91.3%.
`COc1ccc(NC(=O)CC(CN(C)Cc2ccccc2)C(=O)O)cc1` (centres unmarked) [CBK286854] showed a viability at 28.5 h, 10 µM of 93.5%.
`O=C(c1ccc(F)cc1)N1C[C@@H](c2ccsc2)[C@@H]2CN(Cc3cccc(F)c3)CC[C@@H]21` [CBK285640] gave a viability at 28.5 h, 10 µM of 91.2%.
`O=C(NC1CCCCC1)C1CCCN(C(=O)NCc2ccccn2)C1` (centres unmarked) [CBK305814] gave a viability at 28.5 h, 10 µM of 114%.
With `Cc1nn(CCC#N)c2nc(-c3ccc(F)cc3)cc(C(=O)O)c12` [CBK296974] the viability at 28.5 h, 10 µM was 94.7%.
Work on `O=C(/C=C/c1cn(C2CC(O)C(CO)O2)c(=O)[nH]c1=O)NCCNC(=O)C(F)(F)F` (centres unmarked) [CBK201214] yielded a viability at 28.5 h, 10 µM of 98.2%.
For `CCCNCCc1ccc(NC(=O)NCCc2ccccc2)cc1` [CBK173873T], the viability at 28.5 h, 10 µM was 93.5%.
With `CN(C)c1ncc(CNc2nc(O)c3c(n2)CCCC3)cn1` [CBK305460] the viability at 28.5 h, 10 µM was 89.3%.
In the case of `COC(=O)CN(c1ccc(Cl)cc1Cl)S(C)(=O)=O` [CBK267654], the viability at 28.5 h, 10 µM is reported as 105%.
`Nc1nc2c3c(c(-c4ccccc4)nc2[nH]1)CCCC3` [CBK020648] showed a viability at 28.5 h, 10 µM of 78.2%.
With `CCn1cc(-c2cncn2CCOc2ccc(Cl)cc2)cn1` [CBK281776] the viability at 28.5 h, 10 µM was 81.8%.
Compound `Cc1ccc(C(=O)N2CCN(Cc3cc(=O)n4ccsc4n3)CC2)cn1` [CBK305700] has a viability at 28.5 h, 10 µM of 89.4%.
For `N#CCCCN1CCC2(CC1)OCCc1c2[nH]c2ccc(Br)cc12` [CBK040105], the viability at 28.5 h, 10 µM was 88.4%.
With `CCOc1ccc(NC(=O)Nc2ccc(CC(=O)O)cc2)cc1` [CBK266945] the viability at 28.5 h, 10 µM was 112%.
`Cc1nc2ccc(C(=O)NC3CCCOC3)cc2s1` (centres unmarked) [CBK282509] gave a viability at 28.5 h, 10 µM of 82.8%.
`COc1ccc(C2CC(=O)C3=C(C2)NC(C)=C(C#N)C3c2cccc(F)c2)cc1` (centres unmarked) [CBK293922] gave a viability at 28.5 h, 10 µM of 91.6%.
In the case of `Cc1nn(CCC(=O)NCc2ccco2)c(C)c1Cl` [CBK269961], the viability at 28.5 h, 10 µM is reported as 88.8%.
`CN1CCC(NC(=O)c2cccc(OCC(=O)N3CCCCC3)c2)C1=O` (centres unmarked) [CBK307281] showed a viability at 28.5 h, 10 µM of 78.3%.
For `Cc1ccc(NC(=O)Nc2cc(S(N)(=O)=O)ccc2C)cc1` [CBK093428], the viability at 28.5 h, 10 µM was 98.5%.
Work on `CN(C)CCN(C)c1cc(C(F)(F)F)nc(NCc2ccc(Cl)cc2)n1` [CBK009668] yielded a viability at 28.5 h, 10 µM of 93%.
`Cc1csc2c(N3CCC(OCCN4CCCC4)CC3)ncnc12` [CBK304095] showed a viability at 28.5 h, 10 µM of 84%.
With `COc1cccc2sc(NC(=O)c3c(F)cccc3F)nc12` [CBK149283] the viability at 28.5 h, 10 µM was 95.5%.
Compound `CNS(=O)(=O)c1cccc(C(C)NC(=O)N2CCC2)c1` (centres unmarked) [CBK306257] has a viability at 28.5 h, 10 µM of 87.1%.
In the case of `OCCOc1ccc(OCCOc2nccnc2N2CCNCC2)cc1` [CBK014349G], the viability at 28.5 h, 10 µM is reported as 93.9%.
In the case of `COc1ccccc1CNCCc1ccc(S(N)(=O)=O)cc1` [CBK269852C], the viability at 28.5 h, 10 µM is reported as 99.7%.
With `CCCN(c1nc(C)c(Br)c(OC)n1)S(=O)(=O)c1ccc(C)cc1` [CBK028072] the viability at 28.5 h, 10 µM was 105%.
`CN1CCN(c2ccc([N+](=O)[O-])cc2/C=N/NC(=O)CCc2ccccc2O)CC1` [CBK263281] showed a viability at 28.5 h, 10 µM of 97.7%.
In the case of `Cc1c(NC(=O)c2cn3c4c(c(N5CCN(C)CC5)c(F)cc4c2=O)OCN3C)c(=O)n(-c2ccccc2)n1C` [CBK263061], the viability at 28.5 h, 10 µM is reported as 92.9%.
For `O=C(CSCc1ccccc1Cl)Nc1ccc(-c2nnc(-c3ccccc3)o2)cc1` [CBK268656], the viability at 28.5 h, 10 µM was 111%.
In the case of `Cc1ccc(S(=O)(=O)NCCSc2nnc(Nc3ccccc3)s2)cc1` [CBK266345], the viability at 28.5 h, 10 µM is reported as 106%.
With `O=C(Nc1ccc(S(=O)(=O)N2CCCCC2)cc1)c1nc(SCc2ccccc2)ncc1Cl` [CBK268901] the viability at 28.5 h, 10 µM was 107%.
For `COc1ccc(CCNC(=S)N2CCN(c3ccccn3)CC2)cc1OC` [CBK266897], the viability at 28.5 h, 10 µM was 94.5%.
`CC(=O)[C@H]1C[C@@H](CC(=O)Nc2cc3cccnc3nc2Cl)C1(C)C` [CBK091351] showed a viability at 28.5 h, 10 µM of 95.7%.
